# In patent US20140179681A1, “METHODS AND COMPOSITIONS OF TARGETED DRUG DEVELOPMENT” (priority 2010, published 2014):
# Where “and” joins values, the source holds several entries; their conditions need not be identical. Equal values may be shown once. Entries after “also recorded” stand apart in the source; their conditions may differ. Where a name gives a salt, the structure may show the parent alone. Read-outs that look alike come from different tables or passages of the source.
# Assays:
# [1] = system: EGF receptor-mediated cell proliferation; test: Combination studies (median effect analysis: IC50, CI, DRI) in cell proliferation assay (MTT assay); conditions: for CI @ ED90: Combination Index at 90% inhibition; for DRI @ ED97: Dose Reduction Index
# From the text: Studies were initiated to evaluate the ability of various compounds disclosed herein to synergize with several compounds known to inhibit the function of the EGF receptor in a cell proliferation assay (MTT assay).
# EGF binding site = target: T1, EGF binding site (Rattus norvegicus, UniProt G3V6K6); test: Inhibition of [125I]EGF binding (EGF inhibitor assay, NovaScreen); conditions: determined at 25 μM; rat liver membranes; result in words
# T1 construct: Receptor source was rat liver membranes; tissue NovaScreen BioSciences; host or cells: rat liver membranes
# T1 sequence (G3V6K6 25-1209): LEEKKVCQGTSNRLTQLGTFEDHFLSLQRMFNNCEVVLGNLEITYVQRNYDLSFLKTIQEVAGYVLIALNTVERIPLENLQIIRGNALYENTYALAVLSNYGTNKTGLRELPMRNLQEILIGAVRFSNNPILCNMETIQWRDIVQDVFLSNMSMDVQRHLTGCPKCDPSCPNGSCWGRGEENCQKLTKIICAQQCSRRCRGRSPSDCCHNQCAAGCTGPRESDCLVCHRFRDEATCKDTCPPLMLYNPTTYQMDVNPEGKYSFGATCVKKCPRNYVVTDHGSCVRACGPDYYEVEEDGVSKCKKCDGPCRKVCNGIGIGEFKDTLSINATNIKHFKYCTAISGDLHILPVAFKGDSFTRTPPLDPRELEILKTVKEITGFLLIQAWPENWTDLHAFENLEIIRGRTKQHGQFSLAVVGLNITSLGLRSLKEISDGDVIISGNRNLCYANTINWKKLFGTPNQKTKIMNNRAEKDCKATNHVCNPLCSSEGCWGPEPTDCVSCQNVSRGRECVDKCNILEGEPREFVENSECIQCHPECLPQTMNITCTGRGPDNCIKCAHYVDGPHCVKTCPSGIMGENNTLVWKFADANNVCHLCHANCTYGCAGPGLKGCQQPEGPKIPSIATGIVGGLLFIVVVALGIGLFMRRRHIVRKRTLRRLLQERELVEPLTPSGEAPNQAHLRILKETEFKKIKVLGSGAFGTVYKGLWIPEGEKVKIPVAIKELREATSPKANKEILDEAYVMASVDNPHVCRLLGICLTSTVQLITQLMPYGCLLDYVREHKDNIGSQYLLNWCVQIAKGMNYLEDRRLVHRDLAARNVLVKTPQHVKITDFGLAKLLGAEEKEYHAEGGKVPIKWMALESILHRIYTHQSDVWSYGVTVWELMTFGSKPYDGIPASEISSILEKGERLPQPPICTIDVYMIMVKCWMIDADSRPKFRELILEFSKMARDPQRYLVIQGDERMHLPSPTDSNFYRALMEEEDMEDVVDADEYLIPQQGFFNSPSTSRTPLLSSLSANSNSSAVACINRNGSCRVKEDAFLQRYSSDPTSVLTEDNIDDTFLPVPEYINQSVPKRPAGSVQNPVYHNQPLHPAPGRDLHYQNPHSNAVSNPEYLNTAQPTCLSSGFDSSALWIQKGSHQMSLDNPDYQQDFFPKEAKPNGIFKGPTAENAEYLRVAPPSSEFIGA
# Protocol: Identified compounds, representing various pharmacophore models, were tested for ability to inhibit EGFR at 25 μM.
# AD4-compounds were identified using pharmacophore models (see Example 3, Example 4) and then were docked with the binding site of EGFR (SEQ ID NO: 1) that is recognized by defined CDRs of cetuximab. The inhibition of epidermal growth factor binding by AD4-compounds was then determined (NovaScreen BioSciences, Hanover, Md.). Inhibition of EGF binding was determined at 25 μM concentration.
# Receptor source was rat liver membranes. The radioligand was [^125I]EGF ([…]) at a final ligand concentration of 0.36 nM. A non-specific determinant was used as EGF—[100 nM]. The reference compound and positive control was EGF. Reactions were carried out in 10 mM HEPES (pH 7.4) containing 0.1% BSA at 25° C. for 60 minutes. The reaction was terminated by rapid vacuum filtration onto glass fiber filters. Radioactivity trapped onto the filters was determined and compared to control values to ascertain any interactions of test compounds with the EGF binding site. The EGF inhibitor assays were modified from, for example, Mukku (1984) J. Biol. Chem. 259, 6543-6546; Duh et al. (1990) World J. Surgery 14, 410-418; Lokeshwar et al. (1989) J. Biol. Chem. 264(32), 19318-19326.
# EGFR [2] = target: T2, EGFR (Homo sapiens, UniProt P00533); test: Titration of known EGFR inhibitors in absence or presence of a fixed concentration of AD4 compound (% inhibition of EGFR); type: cell-based; conditions: Tykerb alone or in combination with the compound; result in words
# T2 construct: A431 cells (ATCC # CRL-1555) were grown in Dulbecco's Modified Eagle Medium; host or cells: A431
# T2 sequence (P00533 25-1210): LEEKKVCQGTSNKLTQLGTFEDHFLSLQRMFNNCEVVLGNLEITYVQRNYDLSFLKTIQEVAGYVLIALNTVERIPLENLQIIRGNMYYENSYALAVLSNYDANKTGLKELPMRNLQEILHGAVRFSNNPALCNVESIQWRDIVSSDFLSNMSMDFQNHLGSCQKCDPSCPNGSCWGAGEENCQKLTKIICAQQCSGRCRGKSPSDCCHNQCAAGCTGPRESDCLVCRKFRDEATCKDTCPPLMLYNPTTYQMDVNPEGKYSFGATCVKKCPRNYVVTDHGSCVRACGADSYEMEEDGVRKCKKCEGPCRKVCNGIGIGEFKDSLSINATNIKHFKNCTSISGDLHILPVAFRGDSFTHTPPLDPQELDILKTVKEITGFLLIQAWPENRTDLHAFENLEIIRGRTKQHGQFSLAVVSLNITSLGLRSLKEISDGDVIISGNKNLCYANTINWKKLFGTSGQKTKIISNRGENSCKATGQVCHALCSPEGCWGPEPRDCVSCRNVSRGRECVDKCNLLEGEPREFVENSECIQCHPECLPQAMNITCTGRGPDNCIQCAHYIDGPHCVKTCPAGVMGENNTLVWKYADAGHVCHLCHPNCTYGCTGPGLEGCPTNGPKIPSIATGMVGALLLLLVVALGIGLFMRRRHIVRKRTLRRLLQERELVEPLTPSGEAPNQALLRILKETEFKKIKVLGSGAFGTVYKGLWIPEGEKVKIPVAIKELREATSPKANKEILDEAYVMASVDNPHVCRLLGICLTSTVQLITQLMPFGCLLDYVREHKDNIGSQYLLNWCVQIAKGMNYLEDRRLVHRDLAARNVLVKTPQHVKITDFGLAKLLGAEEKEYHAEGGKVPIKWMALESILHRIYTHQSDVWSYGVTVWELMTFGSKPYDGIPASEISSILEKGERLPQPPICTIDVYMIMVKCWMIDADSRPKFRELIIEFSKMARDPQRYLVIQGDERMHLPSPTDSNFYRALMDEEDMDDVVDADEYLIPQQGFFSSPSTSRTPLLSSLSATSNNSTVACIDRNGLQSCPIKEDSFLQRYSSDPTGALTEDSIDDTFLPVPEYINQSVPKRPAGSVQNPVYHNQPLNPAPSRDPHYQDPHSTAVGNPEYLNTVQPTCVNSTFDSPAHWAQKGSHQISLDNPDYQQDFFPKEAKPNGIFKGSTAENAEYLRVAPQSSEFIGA
# EGFR [3] = target: T2, EGFR; test: EGFR in-cell Western (ICW) screening protocol (EGFR inhibition assay); type: cell-based; parameters: ICW 1 / ICW 2 / ICW Avg: unit not given here; conditions: for ICW Screen: Table 11; for ICW Screen / ICW assay: % Inhibition of EGF dependent EGFR phosphorylation in A431 cells, compound 125 μM in assay; for ICW Avg / ICW 1 / ICW 2: ICW assay; for ICW Avg: average of runs 1 and 2; for ICW 1: run 1; for ICW 2: run 2; for ICW assay: Table 10
# Procedure, shortened: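 In-cell Western read-out: fixed A431 cells were co-stained for total EGFR and phospho-EGFR (Tyr1173; some runs Tyr1045). Before fixation, cells were serum-starved for 2 h, exposed to compound for 4 h, then given EGF for 10 min, usually at 10 ng/ml final (6.6 or 12.5 ng/ml in some runs).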
# [4] = system: epithelial carcinoma A431 cell line; test: MTT Cell Proliferation Assay, A431 cells; type: cell-based; conditions: for IC50: Homo sapiens; for MTT Assay IC50(A431/MDBK): ratio in parentheses: ratio MDBK IC50 / A431 IC50 (selectivity)
# Procedure, shortened: (§1)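 Each concentration ran in quadruplicate across duplicate plates, with compounds serially diluted in DMSO and delivered at 0.5% DMSO in 0.5% FBS medium for 3 days.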
# MDBK line = test: MTT Cell Proliferation Assay, MDBK cells; type: cell-based, bovine; conditions: Bos taurus, MDBK
# Procedure, shortened: as §1
# [5] = effect of the test compound on Iressa
# [6] = effect of the test compound on Tykerb
# [7] = A-431, first value of 'a/b (c)', taken as A431 cells, read-out: MTT Screen, first value of cell
# [8] = second value of 'a/b (c)', taken as MDBK cells, read-out: MTT Screen, second value of cell
# [9] = Table 11, second of x/y(ratio): MDBK, unit not printed (doses in μM), read-out: MTT Screen (second value)
# [10] = A-431, A431 cells, first value of cell, read-out: MTT Assay IC50(A431/MDBK): A431
# [11] = MDBK cells, second value of cell, read-out: MTT Assay IC50(A431/MDBK): MDBK
# [12] = A-431, 72 h, Table 10, first of x/y(ratio): A431, three day treatment, unit not printed (doses in μM), read-out: MTT assay (first value)
# [13] = 72 h, Table 10, second of x/y(ratio): MDBK, three day treatment, unit not printed (doses in μM), read-out: MTT assay (second value)
compound,measurement,setting,value
"CS(=O)(=O)CCNCc1ccc(-c2ccc3ncnc(Nc4ccc(OCc5cccc(F)c5)c(Cl)c4)c3c2)o1 [Tykerb, reference compound]",effect of Tykerb on the test compound (DRI as a function of Fa),[1],little effect on AD4-10628
same,IC50,[1]; read-out: IC50 Tykerb,178 nM and 189 nM and 307 nM
"C#Cc1cccc(Nc2ncnc3cc(OCCOC)c(OCCOC)cc23)c1 [Tarceva, reference compound]",synergism with Tykerb,[1],did not produce synergistic effects
O=C(NC(=S)Nc1ccc(S(=O)(=O)NCCc2ccccc2)cc1)C1CC1 [AD4-1886],inhibition of epidermal growth factor binding to its receptor,EGF binding site,inhibitor of epidermal growth factor binding to its receptor
Cc1cccc(NC(c2ccc(C(F)(F)F)cc2)c2ccc3cccnc3c2O)n1 (centres unmarked) [AD4-10628],CI @ ED90,[1]; combination with Iressa,0.91
same,CI @ ED90,[1]; combination with Tykerb,0.55
same,DRI @ ED97,[1]; [5],105
same,DRI @ ED97,[1]; [6],126
Cc1ccc2c(C)nc(Nc3nc(-c4ccccc4)cc(=O)[nH]3)nc2c1 [AD4-10381],inhibition of epidermal growth factor binding to its receptor,EGF binding site,inhibitor of epidermal growth factor binding to its receptor
Cc1ccc2c(C)nc(Nc3nc(-c4ccccc4C)cc(=O)[nH]3)nc2c1 [AD4-11511],shift in Tykerb's dose-response curve,EGFR [2],"leftward shift (i.e., greater potency)"
same,CI @ ED90,[1]; combination with Iressa,0.93
same,CI @ ED90,[1]; combination with Tykerb,0.87
same,DRI @ ED97,[1]; [5],96
same,DRI @ ED97,[1]; [6],84
same,DRI (effect of the test compound on Tykerb / Iressa),[1]; result in words,very high DRI values; also recorded: fairly high DRI
Cc1ccc(NS(=O)(=O)c2ccc(NC(=S)NC(=O)CC(C)C)cc2)c(C)c1 [AD4-12010],ICW Screen (ICW Inhibition),EGFR [3],33.772
same,IC50,[4]; [7],6.68 µM
same,IC50,MDBK line; [8],6.16 µM
Cc1ccc2c(CN3CCN(Cc4ccc5c(c4)OCO5)CC3)cc(=O)oc2c1C [AD4-10181],ICW Screen,EGFR [3],34.604
same,IC50,"[4]; A-431, 72 h, Table 11, first of x/y(ratio): A431, unit not printed (doses in μM), read-out: MTT Screen (first value)",2.61 µM
same,IC50,MDBK line; [9],16 µM
Cc1ccc2c(C)nc(Nc3nc(C(C)C)cc(=O)[nH]3)nc2c1 [compound 11472],ICW Avg,EGFR [3],59.32
same,ICW 1,EGFR [3],51.74
same,ICW 2,EGFR [3],66.90
same,IC50,[4]; [10],24.7 µM
same,IC50,MDBK line; [11],19.4 µM
CC(C)c1ccc2oc(=O)cc(CN3CCN(C/C=C/c4ccccc4)CC3)c2c1 [AD4-10188],ICW Screen,EGFR [3],53.35
same,IC50,"[4]; A-431, Table 11, first of x/y(ratio): A431, unit not printed (doses in μM), read-out: MTT Screen (first value)",9.05 µM
same,IC50,MDBK line; [9],16.3 µM
CC(C)CC(=O)NC(=S)Nc1ccc(S(=O)(=O)N2CCc3ccccc32)cc1 [AD4-10626],ICW Screen (ICW Inhibition),EGFR [3],50.05
same,IC50,[4]; [7],5.31 µM
same,IC50,MDBK line; [8],19.6 µM
COc1ccc2nc(Nc3nc(CSc4nnnn4-c4ccccc4)cc(=O)[nH]3)nc(C)c2c1 [compound 11448],ICW Avg,EGFR [3],43.72
same,ICW 1,EGFR [3],50.06
same,ICW 2,EGFR [3],37.38
same,IC50,[4]; [10],3.45 µM
same,MTT Assay IC50(A431/MDBK): ratio in parentheses,[4],3.27
same,IC50,MDBK line; [11],11.8 µM
CCCc1c(C)nc(Nc2nc(C)c3cccc(OC)c3n2)[nH]c1=O [11773 + TFA],ICW Avg,EGFR [3],33.52
same,ICW 1,EGFR [3],43.74
same,ICW 2,EGFR [3],23.30
same,IC50,[4]; [10],39.4 µM
same,MTT Assay IC50(A431/MDBK): ratio in parentheses,[4],0.53
same,IC50,MDBK line; [11],21 µM
O=S(=O)(Nc1cc(Cl)cc(Cl)c1)c1ccc(NC(=S)Nc2ccc(Cl)c(Cl)c2)cc1 [AD4-12528],ICW assay,EGFR [3],123.946
same,IC50,[4]; [12],5.43 µM
same,IC50,MDBK line; [13],5.3 µM
CCC(C)c1ccc(NC(=S)Nc2ccc(S(=O)(=O)Nc3ccc(OC)cc3)cc2)cc1 (centres unmarked) [AD4-12468],ICW assay,EGFR [3],77.7928
same,IC50,[4]; [12],4.04 µM
same,IC50,MDBK line; [13],5.41 µM
